Laboratory results taken from US10573426B2, “Fluorinated nitriles as dielectric gases” (3M INNOVATIVE PROPERTIES COMPANY, priority 2012, dated 2020).

Legend:
rats = assay: 4 hour inhalation LC50 in rats; assay type: in vivo
Experimental: (§1) For example, heptafluoroisobutyronitrile and 2,3,3,3-tetrafluoro-2-(trifluoromethoxy) propanenitrile have 4 hour inhalation lethal concentration at 50% (“LC-50”, defined as the dose required to produce lethality in half the members of a tested population after a specified test duration) (in rats) values of about 15,000 ppm. […] The nitriles of the present disclosure achieve these lower toxicities without the addition of additives such as nitrite esters as in U.S. Pat. No. 4,547,316.

6 hour inhalation LC50 = assay type: in vivo; details: species not given
Experimental: as §1

Compound: N#CC(F)(OC(F)(F)F)C(F)(F)F (centres unmarked) [2,3,3,3-tetrafluoro-2-(trifluoromethoxy)propanenitrile]
- 4 hour inhalation lethal concentration at 50% (LC-50) (rats): about 15,000 ppm

Compound: N#CC(F)(F)C(F)(F)C(F)(F)F [CF3CF2CF2CN]
- 4 hour inhalation lethal concentration at 50% (LC-50) (rats): less than 6,000 ppm

Compound: N#CC(F)(F)C(F)(F)F [CF3CF2CN]
- 4 hour inhalation lethal concentration at 50% (LC-50) (rats): 2731 ppm

Compound: N#CC(F)(C(F)(F)F)C(F)(F)F [heptafluoroisobutyronitrile, Heptafluoroisobutyronitrile]
- 4 hour inhalation lethal concentration at 50% (LC-50) (rats): about 15,000 ppm

Compound: N#CC(F)(F)F [CF3CN]
- 6 hour inhalation LC50 (6 hour inhalation LC50): 240 ppm
